Test results from PubChem BioAssay AID296 (DTP/NCI, 2004).
Values joined by “and” are separate entries in the source; they are usually repeats but may differ in a detail not shown here. Identical values can stand only once. Inconclusive results are not listed.

System: MX-1 breast xenograft, nude mice, tumor weight T/C
Test: NCI In Vivo Anticancer Drug Screen. Data for tumor model Human Mammary Carcinoma MX-1 Xenograft (intrarenal inoculation) in NU/NU Swiss (nude) mice
Conditions: endpoint: mean tumor weight change, higher = larger tumour
Summary of the method: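 Antitumour effect measured in vivo against vehicle controls, expressed as T/C.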

[1] = dose: 12.5 mg/kg/injection, schedule: Q01DX010 (sc), vehicle: Klucel (hydroxypropylcellulose) (HPC)

With CCC1(O)CC2CN(CCc3c([nH]c4ccccc34)C(C(=O)OC)(c3cc4c(cc3OC)N(C)C3C(O)(C(N)=O)C(O)C5(CC)C=CCN6CCC43C65)C2)C1 (stereo unspecified) (tested in a mixture with another compound) the T/C (dose: 0.75 mg/kg/injection, schedule: Q04DX003 (sc), vehicle: water) was 27 % of control, the T/C (dose: 1.5 mg/kg/injection, schedule: Q04DX003 (sc), vehicle: water) was 1 % of control and the T/C (dose: 6.0 mg/kg/injection, schedule: Q04DX003 (sc), vehicle: water) was -44 % of control.

In the case of CCC1(O)CC2CN(CCc3c([nH]c4ccccc34)C(C(=O)OC)(c3cc4c(cc3OC)N(C)C3C(O)(C(=O)NCCSSCCNC(=O)C5(O)C(O)C6(CC)C=CCN7CCC8(c9cc(C%10(C(=O)OC)CC%11CN(CCc%12c%10[nH]c%10ccccc%12%10)CC(O)(CC)C%11)c(OC)cc9N(C)C58)C76)C(O)C5(CC)C=CCN6CCC43C65)C2)C1 (stereo unspecified), the T/C (dose: 1.5 mg/kg/injection, schedule: Q04DX003 (sc), vehicle: suspension in saline) is reported as 101 % of control, the T/C (dose: 3.0 mg/kg/injection, schedule: Q04DX003 (sc), vehicle: suspension in saline) is reported as 102 % of control and the T/C (dose: 6.0 mg/kg/injection, schedule: Q04DX003 (sc), vehicle: suspension in saline) is reported as 70 % of control. The T/C (dose: 12.0 mg/kg/injection, schedule: Q04DX003 (sc), vehicle: saline) was 1 % of control and the T/C (dose: 12.0 mg/kg/injection, schedule: Q04DX003 (sc), vehicle: suspension in saline) was 73 % of control.

For CN(Cc1cnc2nc(N)nc(N)c2n1)c1c(Cl)cc(C(=O)NC(CCC(=O)O)C(=O)O)cc1Cl (stereo unspecified), the T/C [1] was 86 % of control, the T/C (dose: 25.0 mg/kg/injection, schedule: Q01DX010 (sc), vehicle: Klucel (hydroxypropylcellulose) (HPC)) was 44 % of control and the T/C (dose: 50.0 mg/kg/injection, schedule: Q01DX010 (sc), vehicle: Klucel (hydroxypropylcellulose) (HPC)) was -25 % of control.

With CSCS(=O)C[C@H](CO)NC(=O)/C=C/c1c(C)[nH]c(=O)[nH]c1=O (stereo partly specified) the T/C (dose: 0.38 mg/kg/injection, schedule: Q04DX003 (sc), vehicle: saline) was 106 % of control and the T/C (dose: 0.75 mg/kg/injection, schedule: Q04DX003 (sc), vehicle: saline) was 97 % of control.

COc1cccc2c1C(=O)c1c(O)c3c(c(O)c1C2=O)C[C@H](O)C[C@@H]3OC1CC(N)C(O)C(C)O1 (stereo partly specified) was tested, and the T/C (dose: 3.12 mg/kg/injection, schedule: Q01DX010 (sc), vehicle: saline) was 165 % of control, the T/C (dose: 6.25 mg/kg/injection, schedule: Q01DX010 (sc), vehicle: saline) was 83 % of control and the T/C (dose: 12.5 mg/kg/injection, schedule: Q01DX010 (sc), vehicle: saline) was 66 % of control. The T/C (dose: 25.0 mg/kg/injection, schedule: Q01DX010 (sc), vehicle: saline) was 81 % of control.

With C1CCC2OCCOCCOC3CCCCC3OCCOCCOC2C1 (stereo unspecified) the T/C (dose: 9.38 mg/kg/injection, schedule: Q04DX003 (sc), vehicle: Klucel (hydroxypropylcellulose) (HPC)) was 62 % of control, the T/C (dose: 18.75 mg/kg/injection, schedule: Q04DX003 (sc), vehicle: Klucel (hydroxypropylcellulose) (HPC)) was 87 % of control and the T/C (dose: 37.5 mg/kg/injection, schedule: Q04DX003 (sc), vehicle: Klucel (hydroxypropylcellulose) (HPC)) was 64 % of control. The T/C (dose: 75.0 mg/kg/injection, schedule: Q04DX003 (sc), vehicle: Klucel (hydroxypropylcellulose) (HPC)) was 46 % of control.

NC(C(=O)O)c1ccc(CBr)cc1 (stereo unspecified) was tested, and the T/C (dose: 200.0 mg/kg/injection, schedule: Q04DX003 (sc), vehicle: acid diluted with saline) was 61 % of control, the T/C (dose: 400.0 mg/kg/injection, schedule: Q04DX003 (sc), vehicle: acid diluted with saline) was 92 % of control and the T/C (dose: 800.0 mg/kg/injection, schedule: Q04DX003 (sc), vehicle: acid diluted with saline) was 73 % of control. For the same molecule, the T/C (dose: 1600.0 mg/kg/injection, schedule: Q04DX003 (sc), vehicle: acid diluted with saline) was 106 % of control.

CCC(=O)N(C)[C@@H](C)C(=O)O[C@H]1CC(=O)N(C)c2cc(cc(OC)c2Cl)C/C(C)=C/C=C[C@@H](OC)[C@@]2(O)C[C@H](OC(=O)N2)[C@@H](C)[C@@H]2O[C@@]12C was tested, and the T/C (dose: 0.07 mg/kg/injection, schedule: Q04DX003 (sc), vehicle: saline + alcohol) was 117 % of control, the T/C (dose: 0.13 mg/kg/injection, schedule: Q04DX003 (sc), vehicle: saline + alcohol) was 98 % of control and the T/C (dose: 0.25 mg/kg/injection, schedule: Q04DX003 (sc), vehicle: saline + alcohol) was 88 % of control. The T/C (dose: 0.5 mg/kg/injection, schedule: Q04DX003 (sc), vehicle: saline + alcohol) was 7 % of control.

With O=S(=O)(N=N/C=C1\C=CC=CN1O)c1cccs1 the T/C (dose: 75.0 mg/kg/injection, schedule: Q04DX003 (sc), vehicle: saline with Tween-80) was 99 % of control, the T/C (dose: 150.0 mg/kg/injection, schedule: Q04DX003 (sc), vehicle: saline with Tween-80) was 77 % of control and the T/C (dose: 300.0 mg/kg/injection, schedule: Q04DX003 (sc), vehicle: saline with Tween-80) was 72 % of control.

Cn1cnc([N+](=O)[O-])c1SCC(=O)O was tested, and the T/C (dose: 300.0 mg/kg/injection, schedule: Q04DX003 (sc), vehicle: saline) was 80 % of control, the T/C (dose: 600.0 mg/kg/injection, schedule: Q04DX003 (sc), vehicle: saline) was 43 % of control and the T/C (dose: 1200.0 mg/kg/injection, schedule: Q04DX003 (sc), vehicle: saline) was 88 % of control. For the same molecule, the T/C (dose: 2400.0 mg/kg/injection, schedule: Q04DX003 (sc), vehicle: saline) was 71 % of control.

For N#CCCN(C(=S)Nc1cccc(C(F)(F)F)c1)C1CCCCC1, the T/C (dose: 300.0 mg/kg/injection, schedule: Q04DX003 (sc), vehicle: Klucel (hydroxypropylcellulose) (HPC)) was 89 % of control and the T/C (dose: 2400.0 mg/kg/injection, schedule: Q04DX003 (sc), vehicle: Klucel (hydroxypropylcellulose) (HPC)) was 106 % of control.

With CC1CCC(NC(=O)N(CCCl)N=O)CC1 (stereo unspecified) the T/C (dose: 6.25 mg/kg/injection, schedule: Q01DX010 (sc), vehicle: Klucel (hydroxypropylcellulose) (HPC)) was 74 % of control and the T/C [1] was 78 % of control.

With NC(Cc1ccc(N(CCCl)CCCl)cc1)C(=O)O (stereo unspecified) the T/C (dose: 10.0 mg/kg/injection, schedule: Q04DX003 (sc), vehicle: Klucel (hydroxypropylcellulose) (HPC)) was -99 % of control, the T/C (dose: 20.0 mg/kg/injection, schedule: Q04DX003 (sc), vehicle: Klucel (hydroxypropylcellulose) (HPC)) was -100 % of control and the T/C (dose: 40.0 mg/kg/injection, schedule: Q04DX003 (sc), vehicle: Klucel (hydroxypropylcellulose) (HPC)) was -99 % of control.

In the case of N#CN=[N+]([O-])c1ccc(C(=O)O)cc1, the T/C (dose: 11.25 mg/kg/injection, schedule: Q04DX003 (sc), vehicle: Klucel (hydroxypropylcellulose) (HPC)) is reported as 124 % of control, the T/C (dose: 22.5 mg/kg/injection, schedule: Q04DX003 (sc), vehicle: Klucel (hydroxypropylcellulose) (HPC)) is reported as 87 % of control and the T/C (dose: 45.0 mg/kg/injection, schedule: Q04DX003 (sc), vehicle: Klucel (hydroxypropylcellulose) (HPC)) is reported as 103 % of control.

In the case of CNC(=O)/C=C/C1=CN2C(=O)c3ccc(C)c(O)c3NC(OC)C2C1 (stereo unspecified), the T/C (dose: 0.2 mg/kg/injection, schedule: Q04DX003 (sc), vehicle: saline) is reported as 82 % of control, the T/C (dose: 0.4 mg/kg/injection, schedule: Q04DX003 (ip), vehicle: saline) is reported as 18 % of control and 21 % of control and the T/C (dose: 1.6 mg/kg/injection, schedule: Q04DX003 (sc), vehicle: saline) is reported as 3 % of control.

In the case of ClCCCN1CCCCC1CCl (stereo unspecified), the T/C (dose: 12.5 mg/kg/injection, schedule: Q04DX003 (sc), vehicle: saline) is reported as 51 % of control, the T/C (dose: 25.0 mg/kg/injection, schedule: Q04DX003 (sc), vehicle: saline) is reported as 1 % of control and the T/C (dose: 50.0 mg/kg/injection, schedule: Q04DX003 (sc), vehicle: saline) is reported as 3 % of control.

In the case of O=C1NC(=O)C2C3C=CC(C12)C1C2C(=O)NC(=O)C2C31 (stereo unspecified), the T/C (dose: 400.0 mg/kg/injection, schedule: Q04DX003 (sc), vehicle: saline with Tween-80) is reported as 68 % of control and the T/C (dose: 800.0 mg/kg/injection, schedule: Q04DX003 (sc), vehicle: saline with Tween-80) is reported as 57 % of control.

With O=C1NC(O)c2ccccc2O1 (stereo unspecified) the T/C (dose: 300.0 mg/kg/injection, schedule: Q04DX003 (sc), vehicle: suspension in saline) was 25 % of control, the T/C (dose: 600.0 mg/kg/injection, schedule: Q04DX003 (sc), vehicle: suspension in saline) was 30 % of control and the T/C (dose: 1200.0 mg/kg/injection, schedule: Q04DX003 (sc), vehicle: suspension in saline) was 26 % of control. The T/C (dose: 2400.0 mg/kg/injection, schedule: Q04DX003 (sc), vehicle: suspension in saline) was 29 % of control.

With COc1cccc2c1C(=O)c1c(O)c3c(c(O)c1C2=O)C[C@@](O)(/C(CO)=N/NC(=O)c1ccc(Cl)c(Cl)c1)C[C@@H]3OC1CC(N)C(O)C(C)O1 (stereo partly specified) the T/C (dose: 8.0 mg/kg/injection, schedule: Q01DX010 (sc), vehicle: water) was 42 % of control.

In the case of CC[C@@]1(O)C(=O)OCc2c1cc1n(c2=O)Cc2cc3ccccc3nc2-1, the T/C (dose: 1.0 mg/kg/injection, schedule: Q04DX003 (sc), vehicle: saline with Tween-80) is reported as 100 % of control, the T/C (dose: 2.0 mg/kg/injection, schedule: Q04DX003 (sc), vehicle: saline with Tween-80) is reported as 58 % of control and the T/C (dose: 4.0 mg/kg/injection, schedule: Q04DX003 (sc), vehicle: saline with Tween-80) is reported as 23 % of control. For the same molecule, the T/C (dose: 8.0 mg/kg/injection, schedule: Q04DX003 (sc), vehicle: saline with Tween-80) was 11 % of control.

In the case of NC(=O)c1csc(C2OC(CO)C(O)C2O)n1 (stereo unspecified), the T/C (dose: 200.0 mg/kg/injection, schedule: Q04DX003 (sc), vehicle: water) is reported as 90 % of control, the T/C (dose: 400.0 mg/kg/injection, schedule: Q04DX003 (sc), vehicle: water) is reported as 96 % of control and the T/C (dose: 800.0 mg/kg/injection, schedule: Q04DX003 (sc), vehicle: water) is reported as 118 % of control.
